Test results published in ChEMBL document CHEMBL2380195 (J Med Chem, 2013).
Blank lines part the entries; values can stand above or below the compound they belong to. The source made the active and inactive calls. The calls are words filed in the database; no cut-off is given here.

Legend:
[1] = molecular target: T1, Prostaglandin G/H synthase 1 (Homo sapiens, UniProt P23219); assay: Inhibition of COX-1 in human whole blood assessed as inhibition of serum TXB2 level after 1 hr by radioimmunoassay
[2] = molecular target: T2, Prostaglandin G/H synthase 2 (Homo sapiens, UniProt P35354); assay: Inhibition of COX-2 in human whole blood assessed as inhibition of LPS-induced plasma PGE2 level by radioimmunoassay
T2 sequence (P35354 whole entry): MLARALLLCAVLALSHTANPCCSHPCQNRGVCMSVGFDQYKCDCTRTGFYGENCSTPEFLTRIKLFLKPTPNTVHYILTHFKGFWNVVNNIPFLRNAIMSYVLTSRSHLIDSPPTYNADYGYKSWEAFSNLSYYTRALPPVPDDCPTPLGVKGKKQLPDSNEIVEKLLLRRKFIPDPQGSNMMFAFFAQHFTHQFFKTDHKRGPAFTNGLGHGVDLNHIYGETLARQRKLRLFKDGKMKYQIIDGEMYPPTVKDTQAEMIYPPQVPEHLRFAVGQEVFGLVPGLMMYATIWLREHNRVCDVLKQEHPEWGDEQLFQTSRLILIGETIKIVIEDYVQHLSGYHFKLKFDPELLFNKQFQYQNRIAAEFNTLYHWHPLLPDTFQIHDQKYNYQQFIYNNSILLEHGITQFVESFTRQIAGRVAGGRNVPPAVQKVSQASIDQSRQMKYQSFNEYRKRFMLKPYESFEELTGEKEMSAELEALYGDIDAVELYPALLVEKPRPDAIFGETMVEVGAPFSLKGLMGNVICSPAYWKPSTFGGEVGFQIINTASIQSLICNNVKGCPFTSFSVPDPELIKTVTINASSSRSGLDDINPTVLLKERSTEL

[3] = molecular target: COX-1/COX-2 (Homo sapiens) (UniProt P35354+P23219); assay: Selectivity ratio of IC50 for COX-2 in human whole blood to COX-1 in human whole blood; type: tissue-based
[4] = molecular target: T1, Prostaglandin G/H synthase 1; assay: Inhibition of COX-1 in human THP1 cells assessed as inhibition of arachidonic acid-induced TXB2 formation at 100 uM incubated for 30 mins prior to arachidonic acid challenge measured after 30 mins by radioimmunoassay relative to vehicle-treated control; type: cell-based; conditions: THP-1
[5] = molecular target: T1, Prostaglandin G/H synthase 1; assay: Reversible inhibition of COX-1 in human THP1 cells assessed as inhibition of arachidonic acid-induced TXB2 formation at 100 uM incubated for 30 mins followed by compound washout measured 30 mins post arachidonic acid challenge by radioimmunoassay; type: cell-based; conditions: THP-1
[6] = Binding affinity to human alpha1-acid glycoprotein by HPLC analysis relative to control; type: ADME; conditions: pooled result: one value given for 2 cell lines, strains, targets or settings
[7] = molecular target: T1, Prostaglandin G/H synthase 1; assay: Inhibition of COX-1 (unknown origin) in platelet rich plasma assessed as inhibition of arachidonic acid-induced TXB2 formation incubated for 5 mins prior to arachidonic acid challenge measured for 5 mins by aggregometric analysis
[8] = molecular target: T1, Prostaglandin G/H synthase 1; assay: Inhibition of COX-1 (unknown origin) in platelet rich plasma assessed as inhibition of collagen-induced TXB2 formation incubated for 5 mins prior to collagen challenge measured for 5 mins by aggregometric analysis
[9] = molecular target: T1, Prostaglandin G/H synthase 1; assay: Inhibition of COX-1 (unknown origin) in platelet rich plasma assessed as inhibition of arachidonic acid-induced platelet aggregation at 10 uM incubated for 5 mins prior to arachidonic acid challenge measured for 5 mins by aggregometric analysis relative to vehicle-treated control
[10] = molecular target: T1, Prostaglandin G/H synthase 1; assay: Inhibition of COX-1 (unknown origin) in platelet rich plasma assessed as inhibition of collagen-induced platelet aggregation up to 3 uM incubated for 5 mins prior to collagen challenge measured for 5 mins by aggregometric analysis
[11] = molecular target: Prostaglandin G/H synthase 2 (Homo sapiens) (UniProt P35354); assay: Irreversible inhibition of COX-2 in human MDA-MB-231 cells assessed as inhibition of arachidonic acid-induced PGE2 formation at 100 uM incubated for 30 mins followed by compound washout measured 30 mins post arachidonic acid challenge by radioimmunoassay
[12] = molecular target: T1, Prostaglandin G/H synthase 1; assay: Inhibition of COX-1 (unknown origin) in platelet rich plasma assessed as inhibition of collagen-induced platelet aggregation at 10 uM incubated for 5 mins prior to collagen challenge measured for 5 mins by aggregometric analysis relative to vehicle-treated control
[13] = molecular target: T1, Prostaglandin G/H synthase 1; assay: Inhibition of COX-1 (unknown origin) in platelet rich plasma assessed as inhibition of arachidonic acid-induced platelet aggregation up to 3 uM incubated for 5 mins prior to arachidonic acid challenge measured for 5 mins by aggregometric analysis
[14] = molecular target: T1, Prostaglandin G/H synthase 1; conditions: at 0.01 to 100 µM
[15] = molecular target: Prostaglandin G/H synthase 2 (Homo sapiens) (UniProt P35354); assay: Inhibition of COX-2 in human MDA-MB-231 cells assessed as inhibition of arachidonic acid-induced PGE2 formation at 100 uM incubated for 30 mins prior to arachidonic acid challenge measured after 30 mins by radioimmunoassay relative to vehicle-treated control
[16] = molecular target: T1, Prostaglandin G/H synthase 1; assay: Irreversible inhibition of COX-1 in human THP1 cells assessed as inhibition of arachidonic acid-induced TXB2 formation at 100 uM incubated for 30 mins followed by compound washout measured 30 mins post arachidonic acid challenge by radioimmunoassay; type: cell-based; conditions: THP-1
[17] = molecular target: T1, Prostaglandin G/H synthase 1; assay: Inhibition of COX-1 in human washed platelet assessed as inhibition of 10 uM arachidonic acid-induced TXB2 formation at 0.01 to 100 uM incubated for 25 mins prior to arachidonic acid challenge measured after 30 mins by radioimmunoassay
[18] = molecular target: T1, Prostaglandin G/H synthase 1; assay: Inhibition of COX-1 (unknown origin) in platelet rich plasma assessed as inhibition of collagen-induced platelet aggregation incubated for 5 mins prior to collagen challenge measured for 5 mins by aggregometric analysis
Mus musculus [19] = organism: Mus musculus; assay: Antithrombotic activity in LDLR-/- C57BL/6 mouse assessed as reduction of 11-dehydro-TXB2 level in urine at 30 mg/L after 18 weeks relative to vehicle-treated control; type: functional; parameters: scale not given: the % may be the effect or the level left
Homo sapiens = assay: Antithrombotic activity in human assessed as reduction of 11-dehydro-TXB2 level in urine at 100 mg/day administered 6 days measured for 24 hrs post last dose relative to vehicle-treated control; type: functional; parameters: scale not given: the % may be the effect or the level left
[20] = molecular target: T3, Prostaglandin G/H synthase 2 (Homo sapiens) (UniProt P35354); assay: Inhibition of COX-2 in human whole blood assessed as inhibition of LPS-induced plasma PGE2 level at 1000 uM by radioimmunoassay relative to control
T3 sequence (whole entry): T2 sequence (P35354 whole entry)

[21] = molecular target: T1, Prostaglandin G/H synthase 1; assay: Inhibition of COX-1 (unknown origin) in platelet rich plasma assessed as inhibition of collagen-induced platelet aggregation at 30 uM incubated for 5 mins prior to collagen challenge measured for 5 mins by aggregometric analysis relative to vehicle-treated control
[22] = molecular target: T1, Prostaglandin G/H synthase 1; assay: Inhibition of COX-1 in human washed platelet assessed as rightward shift in 10 uM arachidonic acid-induced TXB2 formation at 0.01 to 100 uM incubated for 25 mins prior to arachidonic acid challenge measured after 30 mins by radioimmunoassay
[23] = molecular target: T1, Prostaglandin G/H synthase 1; assay: Inhibition of COX-1 (unknown origin) in platelet rich plasma assessed as inhibition of arachidonic acid-induced platelet aggregation at 30 uM incubated for 5 mins prior to arachidonic acid challenge measured for 5 mins by aggregometric analysis relative to vehicle-treated control
Mus musculus [24] = assay: Antithrombotic activity in C57BL/6 mouse assessed as reduction of 6-keto-PGF1alpha level in urine at 20 mg/kg, po administered 3 days measured for 24 hrs post third dose; type: functional, organism-based; parameters: dose 20 mg/kg
[25] = molecular target: Prostaglandin G/H synthase 2 (Homo sapiens) (UniProt P35354); assay: Reversible inhibition of COX-2 in human MDA-MB-231 cells assessed as inhibition of arachidonic acid-induced PGE2 formation at 100 uM incubated for 30 mins followed by compound washout measured 30 mins post arachidonic acid challenge by radioimmunoassay
Mus musculus [26] = assay: Antithrombotic activity in C57BL/6 mouse assessed as reduction of 11-dehydro-TXB2 level in urine at 20 mg/kg, po administered 3 days measured for 24 hrs post third dose relative to vehicle-treated control; type: functional; parameters: scale not given: the % may be the effect or the level left

T1 sequence (P23219 whole entry): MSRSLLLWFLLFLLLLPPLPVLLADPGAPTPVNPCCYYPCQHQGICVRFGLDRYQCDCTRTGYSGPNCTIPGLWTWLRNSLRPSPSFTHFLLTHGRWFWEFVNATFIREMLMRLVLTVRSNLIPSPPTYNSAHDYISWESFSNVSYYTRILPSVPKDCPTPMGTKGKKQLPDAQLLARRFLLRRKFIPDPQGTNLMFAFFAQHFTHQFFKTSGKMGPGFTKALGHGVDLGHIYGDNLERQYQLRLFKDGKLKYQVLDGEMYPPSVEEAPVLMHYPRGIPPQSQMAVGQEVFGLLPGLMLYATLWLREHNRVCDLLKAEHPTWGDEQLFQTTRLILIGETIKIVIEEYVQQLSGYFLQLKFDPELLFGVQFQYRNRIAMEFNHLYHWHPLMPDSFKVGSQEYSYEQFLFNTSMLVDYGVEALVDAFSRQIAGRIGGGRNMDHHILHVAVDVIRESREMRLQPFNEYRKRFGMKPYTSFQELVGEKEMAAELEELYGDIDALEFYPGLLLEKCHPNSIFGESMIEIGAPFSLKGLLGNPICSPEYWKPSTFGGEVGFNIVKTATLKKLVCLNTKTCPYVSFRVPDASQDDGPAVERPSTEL
COX-1/COX-2 (Homo sapiens), sequence (P23219 whole entry, looked up, one chain of several): as the sequence (P23219 whole entry) above

- IC50 [1]: > 100 µM
- IC50 [2]: > 100 µM
Structure (SMILES): O=C(O)c1c(-c2ccc(Cl)o2)noc1-c1ccccc1

- Ratio IC50 [3]: 9.05
- IC50 [2]: 17.2 µM
Structure (SMILES): Cc1onc(-c2ccc(Cl)o2)c1-c1ccc(F)cc1

- inhibition [4]: > 90%
- inhibition [5]: Active
Structure (SMILES): CC(C)Cc1ccc(C(C)C(=O)O)cc1 (stereo unspecified)

- IC50 [1]: > 100 µM
- IC50 [2]: > 100 µM
Structure (SMILES): O=C(O)c1c(-c2ccccc2)noc1-c1ccccc1

- IC50 [1]: > 100 µM
- IC50 [2]: > 100 µM
Structure (SMILES): O=C(O)c1onc(-c2ccc(Cl)o2)c1-c1ccccc1

- Activity [6]: 95.7%
- IC50 [7]: 12 µM
- IC50 [8]: 18.6 µM
Structure (SMILES): Cc1onc(-c2ccc(Cl)o2)c1-c1ccccc1

- IC50 [1]: > 100 µM
- IC50 [2]: > 100 µM
Structure (SMILES): Cc1onc(C2CCCO2)c1-c1ccccc1 (stereo unspecified)

- Activity [6]: 94.7%
- inhibition [4]: > 90%
- inhibition [9]: 97.8%
- inhibition [10]: inactive
- inhibition [11]: Active
- IC50 [7]: 4.3 µM
- inhibition [7]: Dose-dependent effect
- inhibition [12]: 66%
- IC50 [1]: 0.32 µM
- inhibition [13]: inactive
- inhibition [14]: Active
- Ratio IC50 [3]: 213
- inhibition [15]: 70%
- inhibition [16]: Active
- IC50 [8]: 7.4 µM
- inhibition [8]: Dose-dependent effect
- IC50 [2]: 68.2 µM
- inhibition [17]: Active
- inhibition [18]: Dose-dependent effect
Structure (SMILES): Cc1ccc(-c2noc(C)c2-c2ccccc2)o1

- inhibition [4]: > 90%
- inhibition [14]: Active
- inhibition [16]: Active
- inhibition [17]: Active
Structure (SMILES): CC(=O)Oc1ccccc1C(=O)O [ASPIRIN]
- Activity (Mus musculus [19]): 70%
- Activity (Homo sapiens): 70%

- IC50 [1]: 0.27 µM
- Ratio IC50 [3]: 4.07
- IC50 [2]: 1.1 µM
Structure (SMILES): Cc1onc(-c2ccccc2Cl)c1-c1ccccc1

- inhibition [20]: 40%
- inhibition [4]: > 90%
- inhibition [21]: 62%
- inhibition [22]: Active
- inhibition [5]: Active
- IC50 [7]: 20 µM
- IC50 [1]: 5 µM
- inhibition [14]: Active
- Ratio IC50 [3]: > 20
- inhibition [15]: inactive
- inhibition [23]: 97%
- IC50 [8]: 23 µM
Structure (SMILES): CC(=O)OCc1onc(-c2ccc(Cl)o2)c1-c1ccccc1

- IC50 [1]: 2.2 µM
- Ratio IC50 [3]: 9.29
- IC50 [2]: 20.4 µM
Structure (SMILES): Cc1onc(-c2ccco2)c1-c1ccccc1

- inhibition [20]: 49%
- Activity [6]: 94.3%
- inhibition [4]: > 90%
- inhibition [9]: 99.2%
- inhibition [10]: inactive
- IC50 [7]: 3.7 µM
- inhibition [7]: Dose-dependent effect
- inhibition [12]: 72%
- inhibition [13]: inactive
- inhibition [14]: Active
- inhibition [25]: Active
- Ratio IC50 [3]: > 123
- inhibition [15]: 70%
- inhibition [16]: Active
- IC50 [8]: 10 µM
- inhibition [8]: Dose-dependent effect
- inhibition [17]: Active
- inhibition [18]: Dose-dependent effect
Structure (SMILES): FC(F)(F)c1onc(-c2ccc(Cl)o2)c1-c1ccccc1
- Activity (Mus musculus [24]): inactive
- Activity (Mus musculus [26]): 70%

- IC50 [1]: 19.2 µM
- Ratio IC50 [3]: > 5.21
- IC50 [2]: > 100 µM
Structure (SMILES): COC(=O)c1onc(-c2ccc(Cl)o2)c1-c1ccccc1

- Ratio IC50 [3]: > 52.6
Structure (SMILES): Cc1onc(-c2ccc(Cl)o2)c1-c1ccccc1F

- IC50 [1]: 1.3 µM
- Ratio IC50 [3]: 0.21
- IC50 [2]: 0.27 µM
Structure (SMILES): Cc1onc(-c2cccc(Cl)c2)c1-c1ccccc1

- Ratio IC50 [3]: > 23.8
- IC50 [2]: > 100 µM
Structure (SMILES): OCc1onc(-c2ccc(Cl)o2)c1-c1ccccc1

- IC50 [1]: 17.3 µM
- Ratio IC50 [3]: > 5.79
- IC50 [2]: > 100 µM
Structure (SMILES): COC(=O)c1c(-c2ccccc2)noc1-c1ccccc1

- Activity [6]: 96.1%
- inhibition [4]: > 90%
- inhibition [9]: 96.3%
- inhibition [10]: inactive
- IC50 [7]: 3.4 µM
- inhibition [7]: Dose-dependent effect
- inhibition [12]: 78%
- IC50 [1]: 0.33 µM
- inhibition [13]: inactive
- inhibition [14]: Active
- inhibition [25]: Active
- Ratio IC50 [3]: 103
- inhibition [15]: 70%
- inhibition [16]: Active
- IC50 [8]: 7.6 µM
- inhibition [8]: Dose-dependent effect
- IC50 [2]: 34 µM
- inhibition [17]: Active
- inhibition [18]: Dose-dependent effect
Structure (SMILES): Cc1onc(-c2ccc(Br)o2)c1-c1ccccc1

- IC50 [1]: > 100 µM
- IC50 [2]: > 100 µM
Structure (SMILES): O=C(OCCCO[N+](=O)[O-])c1onc(-c2ccc(Cl)o2)c1-c1ccccc1

- IC50 [1]: > 100 µM
- IC50 [2]: > 100 µM
Structure (SMILES): O=C(OCCCN1CCOCC1)c1onc(-c2ccc(Cl)o2)c1-c1ccccc1

- IC50 [1]: 37 µM
- Ratio IC50 [3]: > 2.7
- IC50 [2]: > 100 µM
Structure (SMILES): CC(=O)/C(=C(\N)c1ccco1)c1ccccc1

- IC50 [1]: > 100 µM
- IC50 [2]: > 100 µM
Structure (SMILES): CC(=O)/C(=C(\N)c1ccc(Cl)o1)c1ccccc1

- IC50 [1]: 17.4 µM
- Ratio IC50 [3]: > 5.75
- IC50 [2]: > 100 µM
Structure (SMILES): COC(=O)c1c(-c2ccc(Cl)o2)noc1-c1ccccc1
